How the values were obtained:
[1] = tested on: anesthetized rabbits; test: Amino acid infusion with arginine raised to about 50% of the mixture (Example 6); assay type: in vivo, rabbit
Text: Muscle protein synthesis was stimulated in anesthetized rabbits when arginine was increased to about 50% of the total mixture of amino acids infused. […] The mechanism by which arginine activates the initiation of protein synthesis is the same as leucine. Further, arginine is relatively deficient in the elderly. Thus, addition of arginine may work in concert with leucine to activate protein synthesis in elderly.

[2] = tested on: muscle protein synthesis; details: tightly controlled laboratory setting, glucose infused to maintain euglycemia; cited from earlier work

## N=C(N)NCCC[C@H](N)C(=O)O [arginine]
[1]; arginine about 50% of the total mixture of amino acids infused
  Muscle protein synthesis: stimulated
[1]; arginine added to the amino acid solution
  Muscle protein breakdown: unchanged
[1]; post-absorptive rabbits
  Net muscle catabolism: virtually completely reversed

## insulin: hormone, pharmacological treatment compared with EAAs
[2]
  Effect on muscle protein synthesis compared with EAAs: in the same range of effectiveness as EAAs

Reference: patent US20100286023A1, “Compositions and Methods for Increasing Muscle Mass, Strength, and Functional Performance in the Elderly” (priority 2008, published 2010)
